# Residues, ends and D or L forms follow the SMILES beside them.
# Legend:
# Pseudomonas aeruginosa [1] = assay: Antimicrobial activity against Pseudomonas aeruginosa relative to peptide Bac2A RLARIVVIRVAR sequence
# Pseudomonas aeruginosa [2] = assay: antimicrobial activity against Pseudomonas aeruginosa
# [3] = target: Angiotensin-converting enzyme (Homo sapiens) (UniProt P12821); assay: Inhibition of ACE (unknown origin); parameters: unit not given here
# Sequence of Angiotensin-converting enzyme (Homo sapiens) (P12821 whole entry): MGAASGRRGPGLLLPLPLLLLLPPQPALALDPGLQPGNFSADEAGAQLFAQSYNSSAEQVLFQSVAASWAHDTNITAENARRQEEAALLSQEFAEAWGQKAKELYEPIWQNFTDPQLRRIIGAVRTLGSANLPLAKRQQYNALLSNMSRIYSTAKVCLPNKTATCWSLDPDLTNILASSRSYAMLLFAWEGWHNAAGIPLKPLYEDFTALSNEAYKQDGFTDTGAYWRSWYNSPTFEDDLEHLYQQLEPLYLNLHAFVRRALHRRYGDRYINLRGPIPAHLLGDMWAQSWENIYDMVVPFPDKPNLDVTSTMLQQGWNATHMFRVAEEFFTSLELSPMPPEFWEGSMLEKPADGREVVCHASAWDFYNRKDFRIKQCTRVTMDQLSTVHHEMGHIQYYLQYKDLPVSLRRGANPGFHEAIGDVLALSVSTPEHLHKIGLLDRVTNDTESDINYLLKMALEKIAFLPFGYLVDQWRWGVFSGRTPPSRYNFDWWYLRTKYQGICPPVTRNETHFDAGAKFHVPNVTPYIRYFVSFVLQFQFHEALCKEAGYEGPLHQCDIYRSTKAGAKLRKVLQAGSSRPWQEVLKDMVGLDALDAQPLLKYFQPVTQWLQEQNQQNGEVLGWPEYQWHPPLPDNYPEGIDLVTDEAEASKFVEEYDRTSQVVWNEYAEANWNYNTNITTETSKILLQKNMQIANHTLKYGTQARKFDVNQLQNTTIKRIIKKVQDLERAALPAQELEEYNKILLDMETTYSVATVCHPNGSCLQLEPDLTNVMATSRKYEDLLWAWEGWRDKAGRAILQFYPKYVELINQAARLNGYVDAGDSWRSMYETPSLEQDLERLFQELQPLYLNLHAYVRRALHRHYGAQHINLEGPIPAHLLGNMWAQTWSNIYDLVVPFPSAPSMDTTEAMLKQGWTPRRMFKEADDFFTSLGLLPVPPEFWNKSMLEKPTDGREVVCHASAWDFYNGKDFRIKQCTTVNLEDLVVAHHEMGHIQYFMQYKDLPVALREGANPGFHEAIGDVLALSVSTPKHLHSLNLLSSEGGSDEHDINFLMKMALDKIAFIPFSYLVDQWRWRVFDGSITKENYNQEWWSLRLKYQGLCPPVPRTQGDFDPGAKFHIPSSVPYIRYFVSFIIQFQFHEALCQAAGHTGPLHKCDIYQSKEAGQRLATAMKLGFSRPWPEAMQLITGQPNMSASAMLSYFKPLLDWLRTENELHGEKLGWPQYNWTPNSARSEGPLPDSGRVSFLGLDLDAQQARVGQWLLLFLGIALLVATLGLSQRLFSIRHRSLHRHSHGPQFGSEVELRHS
Compound,Ratio IC50 (Pseudomonas aeruginosa [1]),pIC50 (Pseudomonas aeruginosa [2]),logIC50 [3]
N=C(N)NCCC[C@H](NC(=O)[C@H](CCCCN)NC(=O)[C@H](CCCNC(=N)N)NC(=O)[C@@H](N)CCCNC(=N)N)C(=O)N[C@@H](Cc1c[nH]c2ccccc12)C(=O)N[C@@H](Cc1c[nH]c2ccccc12)C(=O)N[C@@H](Cc1c[nH]c2ccccc12)C(=O)N[C@@H](Cc1c[nH]c2ccccc12)C(=O)N[C@@H](Cc1c[nH]c2ccccc12)C(=O)O,0.43,6.37,
N=C(N)NCCC[C@H](NC(=O)[C@H](CCCNC(=N)N)NC(=O)[C@@H](N)CCCNC(=N)N)C(=O)N[C@@H](Cc1c[nH]c2ccccc12)C(=O)N[C@@H](Cc1c[nH]c2ccccc12)C(=O)N[C@@H](Cc1c[nH]c2ccccc12)C(=O)N[C@@H](Cc1c[nH]c2ccccc12)C(=O)N[C@@H](Cc1c[nH]c2ccccc12)C(=O)N[C@@H](Cc1c[nH]c2ccccc12)C(=O)O,1.82,5.74,
C[C@@H](O)[C@H](N)C(=O)N1CCC[C@H]1C(=O)O (H-Thr-Pro-OH),,,2.46
N[C@@H](Cc1ccc(O)cc1)C(=O)N1CCC[C@H]1C(=O)O (H-Tyr-Pro-OH),,,2.86
CC(C)[C@H](N)C(=O)N[C@@H](CO)C(=O)N[C@@H](CO)C(=O)N1CCC[C@H]1C(=O)O (H-VSSP-OH),,,1
CC(C)[C@H](N)C(=O)N[C@H](C(=O)N1CCC[C@H]1C(=O)N1CCC[C@H]1C(=O)O)C(C)C (H-VVPP-OH),,,2.45
CC(C)[C@H](N)C(=O)N[C@@H](CCCNC(=N)N)C(=O)N1CCC[C@H]1C(=O)O (H-Val-Arg-Pro-OH),,,0.34
CC(C)[C@H](N)C(=O)NCC(=O)N1CCC[C@H]1C(=O)O (H-Val-Gly-Pro-OH),,,1.42
CSCC[C@H](NC(=O)[C@@H](N)C(C)C)C(=O)N1CCC[C@H]1C(=O)O (H-Val-Met-Pro-OH),,,1.46
CC(C)[C@H](N)C(=O)N[C@@H](Cc1ccccc1)C(=O)O (H-Val-Phe-OH),,,0.96
CC(C)[C@H](N)C(=O)N1CCC[C@H]1C(=O)O (H-Val-Pro-OH),,,2.62
CC(C)[C@H](N)C(=O)N[C@@H](CO)C(=O)N1CCC[C@H]1C(=O)O (H-Val-Ser-Pro-OH),,,1
CC(C)[C@H](N)C(=O)N[C@@H](Cc1ccc(O)cc1)C(=O)O (H-Val-Tyr-OH),,,1.2
CC(C)[C@H](N)C(=O)N[C@@H](Cc1ccc(O)cc1)C(=O)N1CCC[C@H]1C(=O)O (H-Val-Tyr-Pro-OH),,,2.46
H-APVPP-OH,,,2.8
H-AVPYP-OH,,,1.9
H-DKIHP-OH,,,2.05
H-DYGLYP-OH,,,1.79
H-FFVAP-OH,,,0.78
H-GRVMP-OH,,,2.4
H-HQIYP-OH,,,2.04
H-IAYKP-OH,,,0.34

Compound,Ratio IC50 (Pseudomonas aeruginosa [1]),pIC50 (Pseudomonas aeruginosa [2]),logIC50 [3]
H-IRRRKWWWW-OH,0.21,6.68,
H-IRRRWWWIV-OH,0.23,6.64,
H-KKRWLWWWR-OH,0.3,6.52,
H-KRKIWWWIR-OH,0.28,6.55,
H-KRRRIWWWK-OH,0.4,6.4,
H-KRWWKWWRR-OH,0.13,6.89,
H-KRWWWWWKR-OH,0.22,6.66,
H-KWWKIWWKR-OH,0.2,6.7,
H-LALPP-OH,,,2.9
H-LAYFYP-OH,,,1.81
H-LHLPAP-OH,,,0.78
H-LHLPGP-OH,,,0.28
H-LHLPLP-OH,,,0.57
H-LHLPYP-OH,,,0.36
H-LHLWLP-OH,,,0.95
H-LHLYLP-OH,,,1.28
H-LRFILWWKR-OH,0.88,6.06,
H-PQPIP-OH,,,2.53
H-PVPQP-OH,,,2.04
H-PVVVPP-OH,,,2.07
H-RHWKTWWKR-OH,0.95,6.02,
H-RIKRWWWWR-OH,0.31,6.51,

Compound,Ratio IC50 (Pseudomonas aeruginosa [1]),pIC50 (Pseudomonas aeruginosa [2]),logIC50 [3]
H-RIKVIWWWR-OH,0.51,6.29,
H-RKRLKWWIY-OH,0.18,6.74,
H-RKWWRWWRW-OH,0.31,6.51,
H-RPQIPP-OH,,,1.66
H-RRIWRWWWW-OH,0.68,6.17,
H-RWILWWWRI-OH,25,4.6,
H-RWRRKWWWW-OH,0.39,6.41,
H-RWWRKWWIR-OH,0.24,6.62,
H-SKVPP-OH,,,1.87
H-TKVIP-OH,,,2.6
H-TRKVWWWRW-OH,0.76,6.12,
H-VHLAP-OH,,,0.65
H-VHLPP-OH,,,1.26
H-VIEKYP-OH,,,2.24
H-VLIVP-OH,,,2.23
H-VLPIP-OH,,,1.49
H-VLPYP-OH,,,1.56
H-VRGPFP-OH,,,2.77
H-WHGVRWWKW-OH,2.5,5.6,
H-WKRWKWWKR-OH,0.25,6.6,
H-WRWWKWWRR-OH,0.23,6.64,

# Reference: ChEMBL document CHEMBL3352520, “CoMFA and CoMSIA analysis of ACE-inhibitory, antimicrobial and bitter-tasting peptides” (Eur J Med Chem, 2014)
